Target: T1, human M4 muscarinic acetylcholine receptor (Homo sapiens, UniProt P08173)
T1 construct: expressed in transfected cells; host or cells: CHO-K1
T1 sequence (P08173 1-479): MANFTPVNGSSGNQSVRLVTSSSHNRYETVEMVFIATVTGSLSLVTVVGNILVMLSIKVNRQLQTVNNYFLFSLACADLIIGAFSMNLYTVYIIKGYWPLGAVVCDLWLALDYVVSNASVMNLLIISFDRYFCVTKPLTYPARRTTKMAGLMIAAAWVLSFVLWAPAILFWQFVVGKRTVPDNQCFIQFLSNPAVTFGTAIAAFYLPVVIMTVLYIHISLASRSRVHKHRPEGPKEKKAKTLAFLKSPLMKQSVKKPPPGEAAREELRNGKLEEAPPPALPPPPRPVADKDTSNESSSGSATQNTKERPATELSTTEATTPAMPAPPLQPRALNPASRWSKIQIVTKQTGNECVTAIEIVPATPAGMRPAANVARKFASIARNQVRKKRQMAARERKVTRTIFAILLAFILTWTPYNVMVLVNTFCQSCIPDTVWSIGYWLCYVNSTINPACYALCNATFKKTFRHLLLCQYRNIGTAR
Assay: human FLIPR-based M4 PAM assay (calcium mobilization in CHO-K1 cells with human M4 receptor and Gαqi5)
Assay type: cell-based
Conditions: inflection point of dose response curve, acetylcholine at 20% of maximum response, FLIPR Tetra, read-out: M4 PAM IP
Procedure, shortened: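 CHO-K1 cells stably expressing human M4 and chimeric Gαqi5 were dye-loaded ~1 h at 37° C. Test compound was added with fluorescence recorded 4 min, then acetylcholine at EC20 (sometimes a further EC70 addition) with reading 3.5 min. Value is the inflection point of a 4-parameter logistic fit.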

SMILES	EC50
Cc1ccc(-c2cnn(CC3CCCC3)c2F)c(-c2ccc3c(c2)C(=O)N(C)C3)n1 [Example 76, 6-(3-(1-(cyclopentylmethyl)-5-fluoro-1H-pyrazol-4-yl)-6-methylpyridin-2-yl)-2-methylisoindolin-1-one]	9 nM
Cc1cc(-c2cnn(CC3(C)CCCC3)c2)c(-c2ccc3c(c2)C(=O)N(C)C3)nc1CO [Example 77, 6-(6-(hydroxymethyl)-5-methyl-3-(1-((1-methylcyclopentyl)methyl)-1H-pyrazol-4-yl)pyridin-2-yl)-2-methylisoindolin-1-one]	85 nM
CN1Cc2ccc(-c3nc(C#N)c(Cl)cc3-c3cnn(CC4(C)CCCC4)c3)cc2C1=O [Example 78, 3-chloro-6-(2-methyl-3-oxoisoindolin-5-yl)-5-(1-((1-methylcyclopentyl)methyl)-1H-pyrazol-4-yl)picolinonitrile]	32 nM
CN1Cc2ccc(-c3nc(C#N)ccc3-c3cnn(CC4(C)CCCC4)c3Cl)cc2C1=O [Example 79, 5-(5-chloro-1-((1-methylcyclopentyl)methyl)-1H-pyrazol-4-yl)-6-(2-methyl-3-oxoisoindolin-5-yl)picolinonitrile]	108 nM
CN1Cc2ncc(-c3nc(C(F)F)ccc3-c3cnn(CC4(C)CCCC4)c3)cc2C1=O [Example 80, 3-(6-(difluoromethyl)-3-(1-((1-methylcyclopentyl)methyl)-1H-pyrazol-4-yl)pyridin-2-yl)-6-methyl-6,7-dihydro-5H-pyrrolo[3,4-b]pyridin-5-one]	26 nM
CN1Cc2ncc(-c3nc(C(F)(F)F)ccc3-c3cnn(CC4(C)CCCC4)c3)cc2C1=O [Example 81, 6-methyl-3-(3-(1-((1-methylcyclopentyl)methyl)-1H-pyrazol-4-yl)-6-(trifluoromethyl)pyridin-2-yl)-6,7-dihydro-5H-pyrrolo[3,4-b]pyridin-5-one]	46 nM
CC1(Cn2cc(-c3ccc(C#N)nc3-c3ccc4c(c3)C(=O)N(C3COC3)C4)cn2)CCCC1 [Example 82, 5-(1-((1-methylcyclopentyl)methyl)-1H-pyrazol-4-yl)-6-(2-(oxetan-3-yl)-3-oxoisoindolin-5-yl)picolinonitrile]	310 nM
O=C1c2cc(-c3ncccc3-c3cnn(CC4CCCC4)c3)ccc2CN1c1ccccc1 [Example 83, 6-(3-(1-(cyclopentylmethyl)-1H-pyrazol-4-yl)pyridin-2-yl)-2-phenylisoindolin-1-one]	100 nM
O=C1c2cc(-c3ncccc3-c3cnn(CC4CCCC4)c3)ccc2CN1CC1CC1 [Example 84, 6-(3-(1-(Cyclopentylmethyl)-1H-pyrazol-4-yl)pyridin-2-yl)-2-(cyclopropylmethyl)isoindolin-1-one]	47 nM
O=C1c2cc(-c3ncccc3-c3cnn(CC4CCCC4)c3)ccc2CN1CC1CCCO1 (stereo not shown) [Example 85, 6-(3-(1-(cyclopentylmethyl)-1H-pyrazol-4-yl)pyridin-2-yl)-2-((tetrahydrofuran-2-yl)methyl)isoindolin-1-one]	60 nM
O=C1c2cc(-c3ncccc3-c3cnn(CC4CCCC4)c3)ccc2CN1CC1CCC1 [Example 86, 2-(cyclobutylmethyl)-6-(3-(1-(cyclopentylmethyl)-1H-pyrazol-4-yl)pyridin-2-yl)isoindolin-1-one]	62 nM
N#CC1(N2Cc3ccc(-c4ncccc4-c4cnn(CC5CCCC5)c4)cc3C2=O)CC1 [Example 87, 1-(6-(3-(1-(cyclopentylmethyl)-1H-pyrazol-4-yl)pyridin-2-yl)-1-oxoisoindolin-2-yl)cyclopropane-1-carbonitrile]	319 nM
O=C1c2cc(-c3ncccc3-c3cnn(CC4CCCC4)c3)ccc2CN1C1COC1 [Example 88, 6-(3-(1-(cyclopentylmethyl)-1H-pyrazol-4-yl)pyridin-2-yl)-2-(oxetan-3-yl)isoindolin-1-one]	240 nM
O=C1c2cc(-c3ncccc3-c3cnn(CC4CCCC4)c3)ccc2CN1C1CCC1 [Example 89, 2-cyclobutyl-6-(3-(1-(cyclopentylmethyl)-1H-pyrazol-4-yl)pyridin-2-yl)isoindolin-1-one]	32 nM
CNC(=O)C1(N2Cc3ccc(-c4ncccc4-c4cnn(CC5CCCC5)c4)cc3C2=O)CC1 [Example 90, 1-(6-(3-(1-(cyclopentylmethyl)-1H-pyrazol-4-yl)pyridin-2-yl)-1-oxoisoindolin-2-yl)-N-methylcyclopropane-1-carboxamide]	359 nM
NS(=O)(=O)c1ccc(CCN2Cc3ccc(-c4ncccc4-c4cnn(CC5CCCC5)c4)cc3C2=O)cc1 [Example 91, 4-(2-(6-(3-(1-(cyclopentylmethyl)-1H-pyrazol-4-yl)pyridin-2-yl)-1-oxoisoindolin-2-yl)ethyl)benzenesulfonamide]	49 nM

SMILES	EC50
O=C1c2cc(-c3ncccc3-c3cnn(CC4CCCC4)c3)ccc2CN1CCc1ccccc1 [Example 92, 6-(3-(1-(cyclopentylmethyl)-1H-pyrazol-4-yl)pyridin-2-yl)-2-phenethylisoindolin-1-one]	45 nM
O=C1c2cc(-c3ncccc3-c3cnn(CC4CCCC4)c3)ccc2CN1C1CC1 [Example 93, 6-(3-(1-(cyclopentyl-methyl)-1H-pyrazol-4-yl)pyridin-2-yl)-2-cyclopropylisoindolin-1-one]	58 nM
O=C1c2cc(-c3ncccc3-c3cnn(CC4CCCC4)c3)ccc2CN1CCc1ccc(O)cc1 [Example 94, 6-(3-(1-(cyclopentylmethyl)-1H-pyrazol-4-yl)pyridin-2-yl)-2-(4-hydroxyphenethyl)isoindolin-1-one]	29 nM
CN1Cc2ncc(-c3nc(C#N)ccc3-c3cnn(CC4(C)CCCC4)c3)cc2C1=O [Example 95, 6-(6-Methyl-5-oxo-6,7-dihydro-5H-pyrrolo[3,4-b]pyridin-3-yl)-5-(1-((1-methylcyclopentyl)methyl)-1H-pyrazol-4-yl)picolinonitrile]	21 nM
CN1Cc2ccc(-c3ncccc3-c3cnn(CC4CCCC4)c3)cc2C1=O [Example 96, 6-(3-(1-(cyclopentylmethyl)-1H-pyrazol-4-yl)pyridin-2-yl)-2-methylisoindolin-1-one]	56 nM
Cc1ccc(-c2cnn(CC3CCCC3)c2)c(-c2ccc3c(c2)C(=O)N(C)C3)n1 [Example 97, 6-(3-(1-(cyclopentylmethyl)-1H-pyrazol-4-yl)-6-methylpyridin-2-yl)-2-methylisoindolin-1-one]	16 nM
Cc1ccc(-c2cnn(CC3(C)CCCC3)c2)c(-c2ccc3c(c2)C(=O)N(C)C3=O)n1 [Example 98, 2-methyl-5-(6-methyl-3-(1-((1-methylcyclopentyl)methyl)-1H-pyrazol-4-yl)pyridin-2-yl)isoindoline-1,3-dione]	29 nM
Cc1ccc(-c2cnn(CC3(C)CCCC3)c2)c(-c2ccc3c(c2)C(=O)NC3=O)n1 [Example 99, 5-(6-methyl-3-(1-((1-methylcyclopentyl)methyl)-1H-pyrazol-4-yl)pyridin-2-yl)isoindoline-1,3-dione]	19 nM
Cc1cc(-c2cnn(CC3(C)CCCC3)c2)c(-c2cnc3c(c2)C(=O)N(C)C3)nc1Cl [Example 100, 3-(6-chloro-5-methyl-3-(1-((1-methylcyclopentyl)methyl)-1H-pyrazol-4-yl)pyridin-2-yl)-6-methyl-6,7-dihydro-5H-pyrrolo[3,4-b]pyridin-5-one]	26 nM
CC1(Cn2cc(-c3ccc(C#N)nc3-c3cnc4c(c3)C(=O)NC4)cn2)CCCC1 [Example 101, 5-(1-((1-methylcyclopentyl)methyl)-1H-pyrazol-4-yl)-6-(5-oxo-6,7-dihydro-5H-pyrrolo[3,4-b]pyridin-3-yl)picolinonitrile]	18 nM
CC1(Cn2cc(-c3ccc(C#N)nc3-c3cnc4c(c3)C(=O)N(CC3CC3)C4)cn2)CCCC1 [Example 102, 6-(6-(cyclopropylmethyl)-5-oxo-6,7-dihydro-5H-pyrrolo[3,4-b]pyridin-3-yl)-5-(1-((1-methylcyclopentyl)methyl)-1H-pyrazol-4-yl)picolinonitrile]	35 nM
CC1(Cn2cc(-c3ccc(C#N)nc3-c3cnc4c(c3)C(=O)N(CCF)C4)cn2)CCCC1 [Example 103, 6-(6-(2-fluoroethyl)-5-oxo-6,7-dihydro-5H-pyrrolo[3,4-b]pyridin-3-yl)-5-(1-((1-methylcyclopentyl)methyl)-1H-pyrazol-4-yl)picolinonitrile]	33 nM
Cc1ccc(-c2cnn(CC3(C)CCCC3)c2)c(-c2ccc3c(c2)C(=O)NC3)n1 [Example 104, 6-(6-methyl-3-(1-((1-methylcyclopentyl)methyl)-1H-pyrazol-4-yl)pyridin-2-yl)isoindolin-1-one]	14 nM
CC1(Cn2cc(-c3ccc(C#N)nc3-c3cnc4c(c3)C(=O)N(C3CC3)C4)cn2)CCCC1 [Example 105, 6-(6-cyclopropyl-5-oxo-6,7-dihydro-5H-pyrrolo[3,4-b]pyridin-3-yl)-5-(1-((1-methylcyclopentyl)methyl)-1H-pyrazol-4-yl)picolinonitrile]	36 nM
CC1(Cn2cc(-c3ccc(Cl)nc3-c3cnc4c(c3)C(=O)N(CC3CC3)C4)cn2)CCCC1 [Example 106, 3-(6-chloro-3-(1-((1-methylcyclopentyl)methyl)-1H-pyrazol-4-yl)pyridin-2-yl)-6-(cyclopropylmethyl)-6,7-dihydro-5H-pyrrolo[3,4-b]pyridin-5-one]	43 nM

Source: patent publication US10933056B2, “3-(1H-pyrazol-4-yl)pyridine allosteric modulators of the M4 muscarinic acetylcholine receptor” (Merck Sharp & Dohme Corp., priority 2015, dated 2021)
